According to PubChem BioAssay AID248 (DTP/NCI, 2004):
Several values for one entry are separate records, joined by “and”; a condition that tells them apart may be missing. Identical values can stand only once. Inconclusive results and toxic doses are left out.

System: L1210 leukemia ip in BDF1 mice, survival T/C
Assay: NCI In Vivo Anticancer Drug Screen. Data for tumor model L1210 Leukemia (intraperitoneal) in B6D2F1 (BDF1) mice
Conditions: endpoint: mean survival time, higher = longer survival
Procedure, shortened: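 Tumor cells were implanted, animals were treated, and survival was followed. The result divides the treated measurement by the vehicle-control measurement.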

[1] = dose: 12.5 mg/kg/injection, schedule: Q04DX002 (ip), vehicle: Klucel (hydroxypropylcellulose) (HPC)
[2] = dose: 100.0 mg/kg/injection, schedule: Q01DX001 (ip), vehicle: saline
[3] = dose: 100.0 mg/kg/injection, schedule: Q04DX002 (ip), vehicle: saline with Tween-80
[4] = dose: 200.0 mg/kg/injection, schedule: Q01DX001 (ip), vehicle: saline
[5] = dose: 200.0 mg/kg/injection, schedule: Q04DX002 (ip), vehicle: saline with Tween-80
[6] = dose: 400.0 mg/kg/injection, schedule: Q01DX001 (ip), vehicle: saline
[7] = dose: 100.0 mg/kg/injection, schedule: Q04DX003 (ip), vehicle: other
[8] = dose: 200.0 mg/kg/injection, schedule: Q04DX003 (ip), vehicle: other
[9] = dose: 400.0 mg/kg/injection, schedule: Q04DX003 (ip), vehicle: other
[10] = dose: 100.0 mg/kg/injection, schedule: Q04DX003 (ip), vehicle: Klucel (hydroxypropylcellulose) (HPC)
[11] = dose: 200.0 mg/kg/injection, schedule: Q04DX003 (ip), vehicle: Klucel (hydroxypropylcellulose) (HPC)
[12] = dose: 400.0 mg/kg/injection, schedule: Q04DX003 (ip), vehicle: Klucel (hydroxypropylcellulose) (HPC)
[13] = dose: 100.0 mg/kg/injection, schedule: Q01DX001 (ip), vehicle: other
[14] = dose: 200.0 mg/kg/injection, schedule: Q01DX001 (ip), vehicle: other
[15] = dose: 400.0 mg/kg/injection, schedule: Q01DX001 (ip), vehicle: other
[16] = dose: 100.0 mg/kg/injection, schedule: Q04DX003 (ip), vehicle: saline with Tween-80
[17] = dose: 200.0 mg/kg/injection, schedule: Q04DX003 (ip), vehicle: saline with Tween-80
[18] = dose: 400.0 mg/kg/injection, schedule: Q04DX003 (ip), vehicle: saline with Tween-80

CCCCCCCCCCCCCCn1cnc2ncnc(Cl)c21
T/C (dose: 12.5 mg/kg/injection, schedule: Q01DX005 (ip), vehicle: other): 104 % of control
T/C (dose: 25.0 mg/kg/injection, schedule: Q01DX005 (ip), vehicle: other): 104 % of control
T/C (dose: 50.0 mg/kg/injection, schedule: Q01DX005 (ip), vehicle: other): 103 % of control
T/C (dose: 100.0 mg/kg/injection, schedule: Q01DX005 (ip), vehicle: other): 101 % of control
T/C (dose: 200.0 mg/kg/injection, schedule: Q01DX005 (ip), vehicle: other): 96 % of control

Cc1cc(C(=O)/C=C(\C(=O)c2ccccc2)c2ccccc2)ccc1Cl
T/C [1]: 98 % of control
T/C (dose: 25.0 mg/kg/injection, schedule: Q04DX002 (ip), vehicle: Klucel (hydroxypropylcellulose) (HPC)): 119 % of control
T/C (dose: 50.0 mg/kg/injection, schedule: Q04DX002 (ip), vehicle: Klucel (hydroxypropylcellulose) (HPC)): 94 % of control
T/C (dose: 100.0 mg/kg/injection, schedule: Q04DX002 (ip), vehicle: Klucel (hydroxypropylcellulose) (HPC)): 86 % of control

c1ccc2c3c(ccc2c1)OCCCCCOc1ccc2ccccc2c1-c1c(ccc2ccccc12)OCCOCCOc1ccc2ccccc2c1-3
T/C (dose: 100.0 mg/kg/injection, schedule: Q01DX001 (ip), vehicle: saline with Tween-80): 92 % of control
T/C (dose: 200.0 mg/kg/injection, schedule: Q01DX001 (ip), vehicle: saline with Tween-80): 92 % of control
T/C (dose: 400.0 mg/kg/injection, schedule: Q01DX001 (ip), vehicle: saline with Tween-80): 98 % of control

CCOC(=O)CC(CC[N+](=O)[O-])C(=O)OCC (stereo not given)
T/C (dose: 50.0 mg/kg/injection, schedule: Q04DX002 (ip), vehicle: saline with Tween-80): 108 % of control
T/C [2]: 109 % of control
T/C [3]: 89 % of control
T/C [4]: 110 % of control
T/C [5]: 96 % of control
T/C [6]: 97 % of control

C=CC(=O)[O][Pb]([CH2]C)([CH2]C)[CH2]C
T/C [1]: 86 % of control

NC(=O)C1=CN(Cc2ccc(F)cc2)c2ccccc2C1
T/C [7]: 107 % of control
T/C [8]: 94 % of control
T/C [9]: 102 % of control

COc1cccc2c1C13CC(C)CC(C2)C1CCC(=O)N3 (stereo not given)
T/C [10]: 100 % of control
T/C [11]: 93 % of control
T/C [12]: 102 % of control

NC(=O)CSc1cc(Cl)ccc1Cl
T/C [13]: 96 % of control
T/C [14]: 107 % of control
T/C [15]: 113 % of control

COc1ccc(C(=O)N/N=C/c2ccco2)cc1
T/C (dose: 100.0 mg/kg/injection, schedule: Q01DX009 (ip), vehicle: Klucel (hydroxypropylcellulose) (HPC)): 100 % of control
T/C (dose: 200.0 mg/kg/injection, schedule: Q01DX009 (ip), vehicle: Klucel (hydroxypropylcellulose) (HPC)): 86 % of control

Cc1ccc(Nc2cc(C)nc(N)n2)cc1
T/C (dose: 25.0 mg/kg/injection, schedule: Q01DX Z (ip), vehicle: methylcellulose (MC)): 90 % of control

CSc1nc(N)c(N)c(SC)n1
T/C (dose: 16.0 mg/kg/injection, schedule: Q01DX Z (ip), vehicle: methylcellulose (MC)): 91 % of control
T/C (dose: 31.0 mg/kg/injection, schedule: Q01DX Z (ip), vehicle: methylcellulose (MC)): 93 % of control
T/C (dose: 62.0 mg/kg/injection, schedule: Q01DX Z (ip), vehicle: methylcellulose (MC)): 96 % of control
T/C [13]: 102 % of control
T/C [7]: 94 % of control
T/C (dose: 125.0 mg/kg/injection, schedule: Q01DX Z (ip), vehicle: methylcellulose (MC)): 93 % of control
T/C [14]: 101 % of control
T/C [8]: 96 % of control
T/C [15]: 96 % of control
T/C [9]: 102 % of control

CN(C)/C=N\c1ncnc2c1ccn2C1OC(CO)C(O)C1O (stereo not given)
T/C (dose: 1.56 mg/kg/injection, schedule: Q01DX005 (ip), vehicle: saline): 104 % of control
T/C (dose: 1.56 mg/kg/injection, schedule: Q01DX009 (ip), vehicle: saline): 109 % of control
T/C (dose: 3.12 mg/kg/injection, schedule: Q01DX005 (ip), vehicle: saline): 116 % of control
T/C (dose: 3.12 mg/kg/injection, schedule: Q01DX009 (ip), vehicle: saline): 114 % of control
T/C (dose: 6.25 mg/kg/injection, schedule: Q01DX005 (ip), vehicle: saline): 93 % of control
T/C (dose: 6.25 mg/kg/injection, schedule: Q01DX009 (ip), vehicle: saline): 88 % of control

C[N+]1(C)C2CC(OC(=O)C(CO)c3ccccc3)CC1C1OC12 (stereo not given)
T/C (dose: 75.0 mg/kg/injection, schedule: Q01DX001 (ip), vehicle: other): 106 % of control

Nc1nc(N)c2nc(NCc3ccc(C(=O)NC(CCC(=O)O)C(=O)O)cc3)cnc2n1 (stereo not given)
T/C [2]: 100 % of control
T/C (dose: 100.0 mg/kg/injection, schedule: Q01DX009 (ip), vehicle: saline): 117 % of control
T/C (dose: 100.0 mg/kg/injection, schedule: Q04DX002 (ip), vehicle: saline): 103 % of control and 105 % of control
T/C [4]: 105 % of control
T/C (dose: 200.0 mg/kg/injection, schedule: Q01DX009 (ip), vehicle: saline): 117 % of control
T/C (dose: 200.0 mg/kg/injection, schedule: Q04DX002 (ip), vehicle: saline): 103 % of control and 107 % of control
T/C [6]: 96 % of control
T/C (dose: 400.0 mg/kg/injection, schedule: Q04DX002 (ip), vehicle: saline): 107 % of control and 113 % of control

CCCOC(=O)c1cncc(C(=O)OCCC)c1
T/C [16]: 94 % of control
T/C [17]: 105 % of control
T/C [18]: 100 % of control

O=Cc1[nH]c(=S)[nH]c(=O)c1Cc1cccc(Cl)c1
T/C (dose: 100.0 mg/kg/injection, schedule: Q01DX009 (ip), vehicle: saline with Tween-80): 100 % of control
T/C [16]: 94 % of control
T/C (dose: 200.0 mg/kg/injection, schedule: Q01DX009 (ip), vehicle: saline with Tween-80): 100 % of control
T/C [17]: 94 % of control
T/C (dose: 400.0 mg/kg/injection, schedule: Q01DX009 (ip), vehicle: saline with Tween-80): 100 % of control
T/C [18]: 90 % of control

CN1CCC(COC(=O)C(O)(c2ccccc2)c2ccccc2)C1 (stereo not given)
T/C (dose: 25.0 mg/kg/injection, schedule: Q04DX003 (ip), vehicle: saline with Tween-80): 97 % of control
T/C (dose: 50.0 mg/kg/injection, schedule: Q04DX003 (ip), vehicle: saline with Tween-80): 94 % of control
T/C [16]: 101 % of control and 87 % of control

O=P(N1CC1)(N1CC1)C12CC3CC(CC(C3)C1)C2
T/C (dose: 25.0 mg/kg/injection, schedule: Q01DX009 (ip), vehicle: saline with Tween-80): 170 % of control
T/C (dose: 50.0 mg/kg/injection, schedule: Q01DX009 (ip), vehicle: saline with Tween-80): 243 % of control

CCCCCCCCCCCC(=O)NC(=S)Nc1ccc([N+](=O)[O-])cc1OC
T/C [10]: 96 % of control
T/C [11]: 92 % of control
T/C [12]: 102 % of control

CCOc1ccc(/C=C2\N=C(c3cccc(Cl)c3)OC2=O)cc1
T/C [3]: 93 % of control
T/C [5]: 93 % of control
T/C (dose: 400.0 mg/kg/injection, schedule: Q04DX002 (ip), vehicle: saline with Tween-80): 96 % of control

NN1C(=O)Cc2ccccc2C1=O
T/C (dose: 100.0 mg/kg/injection, schedule: Q01DX001 (ip), vehicle: carboxymethylcellulose (CMC)): 102 % of control
T/C [16]: 101 % of control
T/C (dose: 200.0 mg/kg/injection, schedule: Q01DX001 (ip), vehicle: carboxymethylcellulose (CMC)): 93 % of control
T/C [17]: 101 % of control
T/C (dose: 400.0 mg/kg/injection, schedule: Q01DX001 (ip), vehicle: carboxymethylcellulose (CMC)): 96 % of control
T/C [18]: 116 % of control

CN(C)C(=O)NCc1cccs1
T/C (dose: 100.0 mg/kg/injection, schedule: Q04DX003 (ip), vehicle: carboxymethylcellulose (CMC)): 97 % of control
T/C (dose: 200.0 mg/kg/injection, schedule: Q04DX003 (ip), vehicle: carboxymethylcellulose (CMC)): 93 % of control
T/C (dose: 400.0 mg/kg/injection, schedule: Q04DX003 (ip), vehicle: carboxymethylcellulose (CMC)): 104 % of control

C#CCOc1ccccc1O
T/C (dose: 100.0 mg/kg/injection, schedule: Q01DX009 (ip), vehicle: acetone): 94 % of control and 91 % of control
T/C (dose: 200.0 mg/kg/injection, schedule: Q01DX009 (ip), vehicle: acetone): 94 % of control
T/C (dose: 400.0 mg/kg/injection, schedule: Q01DX009 (ip), vehicle: acetone): 100 % of control and 92 % of control

CCN(CC)C(C)(O)CN (stereo not given)
T/C [2]: 98 % of control
T/C [4]: 103 % of control
